One series has as its system C57BL/6 mice. Put plainly: Therapeutic DSS colitis model (immunization between DSS cycles). It counts as in vivo, mouse. From the text:
DSS-Induced Colitis and Assessment. Before inducing colitis, mice from each treatment group were divided amongst the cages to avoid any cage-related disease effects. This excluded the PBS without DSS (healthy) control mice which remained in their own cage and received normal drinking water for the duration of the experiment. Colitis was induced by administering 2% (w/v) colitis-grade dextran sodium sulfate (MP Biomedicals, 160110) in drinking water. For determination of prophylactic immunization efficacy, mice were immunized i.p. 3 times at days −35, −21 and −7 before colitis induction on Day 0. Chronic colitis was induced via DSS-containing water given for 5 days followed by 5 days of normal drinking water for 3 cycles, resulting in a 30-day model. A shorter, acute DSS-induced colitis model consisting of one cycle of colitis was achieved by giving 5 days of 2% DSS in water followed by 5 days of normal drinking water for a total of 10 days and was also examined in a preventative immunization scenario. Mice were weighed daily and evaluated for the IACUC approved humane endpoint of >30% weight loss as DSS mice regain weight quickly after DSS administration ceases. They were also monitored for occult blood with Hemoccult tape and developer (Beckman Coulter, 63202) and fecal consistency. […] At the experimental endpoint, mice were euthanized, and colon lengths were measured from the base of the cecum to the rectum using digital calibrators. […] Mice were monitored daily as described above until they on average regained their original body weight on day 20. […] The entire therapeutic model ended on day 60, and colon lengths were measured as described above.
FITC-dextran Measurements. […] To determine the intestinal barrier permeability, serum samples were diluted in 1×PBS and FITC fluorescence intensity was measured at an excitation of 488 nm and emission of 520 nm. […]
Spleen Bacteria Measurements. […] After a 48 hr incubation at 37° C., colony forming units (CFUs) were counted and converted to CFU/g of spleen tissue via the equations: […]

The next series concerns ZO-1. Put plainly: Immunofluorescence of colon tight junction protein ZO-1. The series is classed as in vivo, mouse. As to conditions: week 5; vs PBS control mice. As to the method:
Immunofluorescence Imaging and Analysis. Immunofluorescence was conducted on sections from proximal colon samples frozen in OCT and sectioned. Slides were first thawed and outlined with a hydrophobic pen (ImmEdge Hydrophobic Barrier PAP Pen, Vector Labs, H-4000) then fixed with 4% paraformaldehyde for 10 min at room temperature. The slides were washed three times with wash buffer (1×PBS+100 mM CaCl2+100 mM MgCl) for 10 min at room temperature then incubated in a blocking solution containing 0.3% Triton X-100 and 10% normal donkey serum in 1×PBS+100 mM CaCl2+100 mM MgCl for 1 h at room temperature. The slides were then incubated in the primary antibodies (rat anti-ZO-1, clone R40.70, Fisher Scientific, MABT11; rabbit anti-occludin, clone EPR20992, Abcam, ab216327) diluted 1:100 in the blocking solution overnight at 4° C. The slides were washed three times with wash buffer for 10 min at room temperature. They were then incubated in the secondary antibodies (donkey anti-rat Alexa Fluor™ 568, Thermo Fisher, A78946; donkey anti-rabbit Alexa Fluor™ 647, Thermo Fisher, A31573) and nuclear marker DAPI diluted 1:500 in the blocking solution for 2 h at room temperature. […] The intensities of each marker were quantified using ImageJ and expressed as the integrated density of the fluorescent signal normalized to the area fraction of DAPI positive pixels. […]

Series [1] can be described thus: Zeta potential of nanofibers. The series is classed as physicochemical. The conditions noted are these: 1 mM conjugate coassembled with 1 mM Q11; 0.2 mM in 1×PBS, 25° C. As to the method: Zeta Potential. Nanofibers were diluted to 0.2 mM in 1×PBS and zeta potential measurements were conducted at 25° C. using an Anton Paar Litesizer 500.

Where no end group is shown, it is not given here. C11H22NO6P = phosphorylcholine group attached via 2-methacryloyloxyethyl phosphorylcholine

For “(C11H22NO6P)n-CCCCSGSG-QQKFQFQFEQQ-NH2 (CCCCSGSGQQKFQFQFEQQ-NH2; not fully specified; cysteine pairing not given here; also: phosphorylcholine groups (C11H22NO6P) n=1-4, attachment not placed) [PCM-Q11, linear multi-PC conjugate]”, in the series with C57BL/6 mice (i.p. days 20, 32, 45, without CpG, vs immunization in absence of prior colitis), the “anti-PC IgG responses in mice with prior DSS colitis” value was “higher anti-PC IgG responses”. For the same substance, the “IgG subclasses in mice with prior DSS colitis” value in the series on C57BL/6 mice (mouse, in vivo) is listed as “not altered”. Moreover, the “anti-PC IgM response in mice with prior DSS colitis” value with C57BL/6 mice (without CpG) is “measurable anti-PC IgM response”. Also, in the series with ZO-1, the “ZO-1 levels in colon after immunization” value was “not significantly different”.
“C11H22NO6P-CSGSG-QQKFQFQFEQQ-NH2 (C(C11H22NO6P)SGSGQQKFQFQFEQQ-NH2) [PC-Q11, phosphodiester PC-Q11]”: the “zeta potential (surface charge) of nanofibers” value in series [1] is given as “neutrally charged”.
